Data: US20130266663A1, “SOX9 INHIBITORS” (priority 2010, published 2013)

Key:
SOX9 target genes [1] = assay: Quantitative RT-PCR of SOX9 target genes after SCI, intrathecal miniosmotic pump delivery for 7 days; format: in vivo, rat; settings: spinal cord-injured rats, 0.35 mg/ml or 3.5 mg/ml
Protocol: To assess, the intrathecal miniosmotic pump as a means of compound delivery, spinal cord-injured rats received either saline, 0.35 mg/ml or 3.5 mg/ml of chlorpromazine for 7 days. At 7 days the levels of SOX9 target gene expression including GFAP, Brevican, XT-1 and Hapln1 were measured by quantitative RT-PCR as previously described.

MCAO mice = assay: Grip testing after MCAO (stroke model); format: in vivo; settings: mouse MCAO, 5 mg/kg daily i.p. from 24 hours post-injury
Protocol: At 3 days and 7 days post-injury, recovery of the damaged side was assessed by grip testing. […] This provides evidence that chemical compounds that modulate SOX9 activity can improve behavioral function following general CNS damage including that associated with spinal cord injury and stroke.
Stroke injury model: A standard MCAO mouse model will be utilized. Briefly, an 11 mm length of monofilament nylon coated with Poly-L-lysine is passed into the common carotid artery, through the internal carotid artery, and past the middle cerebral artery (MCA), effectively occluding the MCA. The loop of suture is tightened down and the mouse allowed to recover in a warm cage. Effective cerebral blood flow reduction is confirmed by a laser-Doppler flowmetry probe (reductions of 70% or better indicating successful occlusion). After 30 minutes for a moderate injury or 60 minutes for a severe injury, the mouse is re-anesthetized and the nylon suture removed allowing reperfusion.

SOX9 target genes [2] = assay: Real-time PCR of SOX9 target genes after SCI, chlorpromazine i.p. once a day for 7 days; format: in vivo, rat
Protocol: In the context of rodent studies, administration of chlorpromazine was assessed using delivery by intraperitoneal injection (as described in Example 3) and intrathecal miniosmotic pump (as described in Example 5). In summary, three doses of chlorpromazine were given i.p. (2 mg/kg, 4 mg/kg and 6 mg/kg) once a day for 7 days. The rats were then sacrificed and realtime pCR analysis of SOX9, GFAP. XT1, link protein, collagen 2A, aggrecan and brevican was conducted on a spinal cord sample normalizing to 18S.

SOX9 target genes [3] = assay: Short-term SOX9 target gene expression (Q-PCR) in injured cord after SCI; format: in vivo; settings: rat SCI, 2 mg/kg ip 2 hours after injury, sacrificed twelve hours later
Protocol: To validate the impact of the compounds on relevant conditions in rodents, a short-term experiment was performed to see whether chlorpromazine might reduce SOX9 target gene expression in vivo. […] Twelve hours later the rats were sacrificed and RNA was isolated from a 5 mm segment of their injured cords centered on the lesion. […] Specifically, the decrease in the expression of GFAP indicates a lower level of astrocyte activation.
Twelve hours later the rats were sacrificed and RNA was isolated from a 5 mm segment of their injured cords centered on the lesion.

[4] = system: rats subject to spinal cord injury; assay: Behavioral testing (BBB scale) after spinal cord injury; format: in vivo; settings: rat SCI, 0.35 mg/ml and 3.5 mg/ml for 7 days via intrathecal miniosmotic pump; saline controls no improvement
Protocol: As examples of the general utility of chemical compounds for general CNS damage and repair, chlorpromazine was assessed in rodent models of spinal cord injury and stroke (MCAO). […] Briefly, rats were subject to spinal cord injury as described and administered chlropromzaine at 0.35 mg/ml and 3.5 mg/ml for 7 days via the intrathecal miniosmotic pump. At 7 days, 4 rats were assessed for behavioral recovery, prior to being sacrificed for gene expression analyses as described above.
In these studies rats (n=16 per group) will receive the SOX9 inhibitor for 6 weeks at which time half of the animals will be processed for SOX9 target gene expression by Q-PCR (as described above) and half will be processed for immunohistochemistry. […] Locomotor recovery, chronic pain syndromes and autonomic function will be assessed in treated and control mice. Motor function will be evaluated once per week using the Basso, Beattie and Bresnahan (BBB) scale for scoring hind limb function (Basso 1995). The presence of mechanical allodynia (a pain syndrome in which innocuous stimuli are perceived as painful) will be assessed once a week by stimulating the backs of the mice with a modified 1.569 mN Semmes Weinstein monofilament at, and rostral, to the level of the injury. […] Finally autonomic function will be assessed by measuring the degree of autonomic dysreflexia in animals before being sacrificed. […]

[5] = rat SCI, i.p. 2, 4 and 6 mg/kg once a day for 7 days, normalized to 18S

Question: What does the source list for `CN(C)CCCN1c2ccccc2Sc2ccc(Cl)cc21` [chlorpromazine]?
Answer: SOX9 target gene expression including GFAP, Brevican, XT-1 and Hapln1 (SOX9 target genes [1]): improved anticipated outcome at 3.5 mg/ml of drug; improvement over saline control in grip testing (MCAO mice; 3 days post injury): approximately 15%; improvement over saline control in grip testing (MCAO mice; 7 days post injury): approximately 20%; impact on target gene expression (SOX9 target genes [2]; at 2 and 4 mg/kg administration, i.p., 7 days): apparent impact on target gene expression; expression of Aggrecan (SOX9 target genes [2]; [5]): reduces the expression; expression of Brevican (SOX9 target genes [2]; [5]): reduces the expression; expression of GFAP (SOX9 target genes [2]; [5]): reduces the expression; expression of HAPLN1 (SOX9 target genes [2]; [5]): reduces the expression; expression of SOX9 (SOX9 target genes [2]; [5]): reduces the expression; expression of XT-1 (SOX9 target genes [2]; [5]): reduces the expression; expression of type 2A Collagen (SOX9 target genes [2]; [5]): reduces the expression; CSPG Aggrecan expression (SOX9 target genes [3]): significant decrease; Type II collagen expression (SOX9 target genes [3]): reduced; Type IV collagen expression (SOX9 target genes [3]): reduced; expression of GFAP (SOX9 target genes [3]): decrease; expression of scar generating factors (SOX9 target genes [3]): decreased expression; locomoter function score (BBB scale) [4]: non-zero scores
